Assay [1] deals with T1, 5HT2C receptor (Homo sapiens, UniProt P28335).
T1 sequence (P28335 33-458): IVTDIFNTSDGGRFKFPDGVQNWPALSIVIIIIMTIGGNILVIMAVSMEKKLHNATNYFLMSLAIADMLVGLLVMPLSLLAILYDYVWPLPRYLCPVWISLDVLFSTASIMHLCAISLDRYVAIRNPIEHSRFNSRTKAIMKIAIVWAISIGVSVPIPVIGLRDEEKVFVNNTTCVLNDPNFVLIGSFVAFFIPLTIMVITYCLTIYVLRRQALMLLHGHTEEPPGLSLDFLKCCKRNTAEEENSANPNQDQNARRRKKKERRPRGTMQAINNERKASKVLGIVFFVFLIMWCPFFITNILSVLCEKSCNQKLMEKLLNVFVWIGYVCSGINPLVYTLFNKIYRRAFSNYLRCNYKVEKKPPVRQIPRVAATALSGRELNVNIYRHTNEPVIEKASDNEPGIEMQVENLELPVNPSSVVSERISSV
Conditions: cited from earlier work; for Ki: human serotonin receptor, reported.

Assay [2] has as its target T2, 5HT2A receptor (Homo sapiens, UniProt P28223). Conditions: human serotonin receptor, reported; cited from earlier work.
Assay [3] relates to male Swiss Webster mice. Nature of the assay: Locomotor activity test, Swiss Webster mice. The class given is in vivo, mouse. Particulars: IP, photobeam interruptions, versus vehicle. Here is the method: (§1) Locomotor Activity and the FST. To evaluate the isolated compounds for antidepressant-like activity, male Swiss Webster mice (Harlan, Indianapolis, Ind.) (25-30 g weight) were used. Animals were housed in groups of five with a 12 h light/12 h dark cycle. Food and water were provided at libitum. All procedures involving animals were performed as approved by the Institutional Animal Care and Use Committee of the University of Mississippi. Animals were randomly divided into groups (n=6-10/group). Each group was injected IP with either the compound (1-20 mg/kg), desipramine (20 mg/kg), or vehicle (saline, 10% ethanol or 10% ethanol/1% DMSO). Following injection, locomotor activity was monitored using an automated activity monitoring system (San Diego Instruments, San Diego, Calif.). Each mouse was placed in a Plexiglas enclosure and locomotor activity was recorded as the number of photobeam interruptions for 30 min after drug injection. The activity for the last ten min was quantified and analyzed. Immediately at the end of the locomotor session, individual mice were subjected to the FST. The mice were individually placed in a clear plastic cylinder (23 cm high, 10 cm internal diameter) filled with deionized water (8 cm high) at 25° C. The mice were recorded with a video camera (positioned at about 30 cm above the cylinder) for a total of 6 min. The total period of immobility during the last 4 min was timed by three independent observers. The mean immobility time was then calculated. A mouse was judged to be immobile when it remained afloat, making only minimal movements to keep its head above water.
Effect of select compounds on locomotor activity. Since reductions in immobility time is the primary criterion to assess antidepressant like activity in both the FST and TST, it is crucial to confirm that the effects observed in both tests are not attributed to specific stimulant action of the tested compounds, which would be reflected as enhancement of the locomotor activity. Accordingly, the effect of tested compounds on locomotor activity was evaluated using an automated activity monitoring system.

For assay [4], the system named is male Swiss Webster mice. Nature of the assay: Porsolt forced swim test (FST). Conditions: for antidepressant-like activity / effect on immobility time in FST: male Swiss Webster mice, IP, immobility during last 4 min of 6 min swim. The class given is in vivo, mouse. Here is the method: as §1
(§2) For the FST, immobility times of the three independent rates were averaged for each mouse and data were analyzed using one way analysis of variance (ANOVA) followed by Bonferroni Multiple comparison posthoc tests to determine statistical differences from the corresponding vehicle control. Chick distress vocalization data were analyzed by two-way repeated measures ANOVA, one-way ANOVA and simple effects analyses with post-hoc comparisons conducted using Fisher's LSD test. p-Values less than 0.05 were considered statistically significant.
(§3) Porsolt R D, et al. Behavioral Despair In Mice: A Primary Screening Test for Antidepressants, 229 Arch. Int. Pharmacodyn. 327-36 (1977). […] In order to control for false positives, as has been previously observed with psychostimulants, Cryan, J., et al. Assessing Substrates Underlying The Behavioral Effects Of Antidepressants Using The Modified Rat Forced Swimming Test. 29 Neurosci Biobehav Rev. 547-69 (2005) locomotor activity of the animals was monitored using an automated photobeam activity monitoring system. Lucki. I. The Forced Swimming Test As A Model For Core And Component Behavioral Effects Of Antidepressant Drugs. 8 Behav. Pharmacol. 522-32 (1997).

Assay [5] deals with T3, 5-HT2C (UniProt P28335).
T3 sequence (P28335 1-458): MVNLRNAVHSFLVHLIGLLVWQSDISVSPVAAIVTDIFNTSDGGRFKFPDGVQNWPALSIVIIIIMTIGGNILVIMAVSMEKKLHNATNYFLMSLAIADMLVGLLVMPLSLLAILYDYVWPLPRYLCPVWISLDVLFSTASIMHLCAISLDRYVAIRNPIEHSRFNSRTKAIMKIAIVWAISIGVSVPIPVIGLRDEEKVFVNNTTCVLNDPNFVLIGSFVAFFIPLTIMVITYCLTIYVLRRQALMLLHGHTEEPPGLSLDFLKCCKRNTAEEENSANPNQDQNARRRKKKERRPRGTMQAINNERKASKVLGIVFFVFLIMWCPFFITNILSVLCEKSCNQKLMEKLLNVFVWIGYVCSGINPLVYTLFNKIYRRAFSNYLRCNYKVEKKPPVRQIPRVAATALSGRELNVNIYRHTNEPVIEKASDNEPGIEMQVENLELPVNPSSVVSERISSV
The assay can be described thus: In vitro receptor binding assay, 5-HT2C. Particulars: read-out: Ki 5-HT2C; preliminary data. More on the design: species or system human or rodent. On the procedure: (§4) Evaluation of binding affinity of isolated compounds to serotonin receptors. In vitro testing of isolated compounds was completed using a small panel of receptor binding assays and then validated in a comprehensive panel by the NIMH Psychoactive Drug Screening Program. Pharmacological and functional screening of isolated molecules was performed on cloned human or rodent CNS receptors, channels, and transporters. Hu, J-F., et al. New Antiinfective and Human 5-HT2 Receptor Binding Natural and Semisynthetic Compounds from the Jamaican Sponge Smenospongia aurea. 65 Jour. of Nat. Prod. 476-80 (2002).

For assay [6], the system named is Male DBA2/J mice. Nature of the assay: Mouse tail suspension test (TST). The class given is in vivo. Conditions: i.p., versus vehicle. From the text:
Based on the data collected from the FST, the antidepressant action of aaptamine. 5,6-dibromo-N,N-dimethyltryptamine, and 3-bromotyramine was examined in the mouse tail suspension test (TST), another model highly predictive of antidepressant action. Similar to the FST, this test depends on the depressive behavior elicited by the animals when placed in an inescapable situation, in this case suspending the animal by its tail. Male DBA2/J mice were used for this test.
In fact, higher doses seem to increase immobility time (FIG. 9C). […] However, such effect was only evident at the 40 mg/kg dose (compared to 10 and 20 mg/kg dose in the FST) (FIG. 9D).

For assay [7], the system named is white-leghorn cockerels. The assay can be described thus: Chick anxiety-depression continuum model (SCADM). In kind it is in vivo. Conditions: 30 mg/kg dose. On the procedure:
5,6-Dibromo-N,N-dimethyltryptamine (1) was evaluated in the FST and chicken anxiety-depression model. […] In the chick anxiety-depression continuum model, socially raised chicks are separated from conspecifics during a two hour test session. […] Previous studies have shown the first 5 min block to model the anxiety phase whereby a diverse set of anxiolytic compounds reduce distress vocalizations and that the last 90 min of the test session models the depressive phase of the model whereby antidepressants increase distress vocalizations (i.e., block the onset of behavioral despair). Sufka, K. J. et al.; 17 C. M. Behav.
Sulfka Chick Anxiety-Depression Model (SCADM) Test. Group housed white-leghorn cockerels (Cal-Maine W36) were tested at ages 5-6 days post-hatch. […] Vocalizations were recorded in 5-min blocks over a 120 min test period. […]
as §2

Assay [8] relates to serotonin receptors. Nature of the assay: Affinity to serotonin receptors (receptor binding panel). More on the design: species or system human or rodent. On the procedure: as §4, §3
Assay [9] has as its target 5-HT2B receptors (UniProt P41595). Nature of the assay: In vitro receptor binding assay, 5-HT2B. Conditions: read-out: Ki 5-HT2B; preliminary data. More on the design: species or system human or rodent. Here is the method:
as §4

Assay [10] has as its target T2, 5HT2A receptor. The assay can be described thus: In vitro receptor binding assay, 5-HT2A. Particulars: read-out: Ki 5-HT2A; preliminary data. More on the design: species or system human or rodent. Here is the method: as §4
Assay [11] has as its target 5-HT6 (UniProt P50406). Nature of the assay: In vitro receptor binding assay, 5-HT6. More on the design: species or system human or rodent. Conditions: read-out: Ki 5-HT6; preliminary data. On the procedure: as §4

Entries after “also recorded” stand apart in the source; their conditions may differ. Like-named read-outs stand apart in the source and are kept apart here.

T2 sequence (P28223 whole entry): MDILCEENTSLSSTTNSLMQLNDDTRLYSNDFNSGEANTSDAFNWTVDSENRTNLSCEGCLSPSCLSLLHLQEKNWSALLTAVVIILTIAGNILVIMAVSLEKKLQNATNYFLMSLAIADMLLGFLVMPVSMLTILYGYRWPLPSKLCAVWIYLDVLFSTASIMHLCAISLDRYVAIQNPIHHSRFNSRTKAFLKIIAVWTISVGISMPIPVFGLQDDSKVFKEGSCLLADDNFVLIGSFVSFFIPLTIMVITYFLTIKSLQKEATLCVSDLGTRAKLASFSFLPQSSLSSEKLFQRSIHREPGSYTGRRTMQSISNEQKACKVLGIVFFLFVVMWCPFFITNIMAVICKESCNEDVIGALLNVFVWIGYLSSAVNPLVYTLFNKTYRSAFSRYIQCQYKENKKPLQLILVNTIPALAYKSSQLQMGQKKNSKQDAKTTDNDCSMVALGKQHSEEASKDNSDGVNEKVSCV

`CN1C(=N)N(C)/C(=C/c2c[nH]c3cc(Br)ccc23)C1=O` [6-bromoaplysinopsin]: the Ki (commonly the dissociation constant of the complex between target and ligand, obtained from inhibition or displacement) in assay [1] is 330 nM; in assay [2] it was 2000 nM.

For the molecule `CN(C)CCc1c[nH]c2ccc(Br)cc12` [5-bromo-N,N-dimethyltryptamine], the figures for the “effect on locomotor activity” value in assay [3] and in assay [3] (listed as 2) were “significant reduction of locomotor activity” and “significant sedative effect”, respectively. For the same molecule, in assay [4] (versus vehicle), the “antidepressant-like activity / effect on immobility time in FST” value (from here on “antidepressant-like activity / effect”) is given as “did not exhibit antidepressant-like activity”.

As to `CN1C(=N)NC(=Cc2c[nH]c3cc(Br)ccc23)C1=O` [6-bromo-2′-de-N-methylaplysinopsin], the “selectivity to 5HT2C receptors” value in assay [1] (5HT2C over 5HT2A) was 40 fold. Also, the values for the Ki in [1] and in assay [2] were 2300 nM and more than 100000 nM, respectively.

Take `COc1cc2ccnc3c2c(c1OC)NC=C3` [aaptamine]: the “reduction in immobility time in FST” value in [4] (20 mg/kg dose, versus vehicle) was 36%.

Turning to `CN1C(=N)N(C)/C(=C/c2c[nH]c3ccccc23)C1=O` [Aplysinopsin, aplysinopsin], the “antidepressant-like activity / effect” value in [4] (versus vehicle) was “did not show any significant antidepressant-like activity”.

For the molecule `CN(C)CCc1c[nH]c2cc(Br)c(Br)cc12` [5,6-dibromo-N,N-dimethyltryptamine], the Ki in [5] was 187 nM; in assay [9], 11 nM; in assay [10], 243 nM; in assay [11], 48 nM. Moreover, the “antidepressant-like action / immobility in tail suspension test” value in [6] was “strong antidepressant-like action at the 5 mg/kg dose only”. Also, the “effect on locomotor activity” value in assay [3] is given as “no statistically significant difference; also recorded: nonsignificant trend toward decreasing locomotor activity”. For the same molecule, in [7] (30-120 min of test session), the “separation distress vocalizations, depression phase” value is reported as “elevating separation distress vocalizations in the final 30 min of the depression phase”. Besides, the “separation distress vocalizations, anxiety phase” value in [7] (first 5 min of test session) is listed as “attenuating separation distress vocalizations in the anxiety phase”. Also, the “affinities to serotonin receptors” value in [8] is “moderate affinities”. In addition, the “antidepressant-like activity / effect” value in [4] (versus vehicle) is reported as “significant antidepressant-like action at only the 20 mg/kg dose”; in assay [4] (versus vehicle, listed as 5,6-Dibromo-N,N-dimethyltryptamine), “significant antidepressant-like activity; also recorded: significantly reduced the immobility time only at the 20 mg/kg dose”.

As for `COc1cc2ccnc3c2c(c1O)N(C)C=C3` [isoaaptamine], in assay [8], the “affinities to serotonin receptors” value is on record as “moderate affinities”. In assay [4] (versus vehicle), the “antidepressant-like activity / effect” value is reported as “significantly increased immobility time in a dose-dependent manner”.

Turning to N-3′-ethylaplysinopsin, the Ki in [1] is 3500 nM; in assay [2], 1700 nM.

As for `CN(C)CCCC1(c2ccc(F)cc2)OCc2cc(C#N)ccc21` (stereo not shown) [citalopram, reference compound], the “reduction in immobility time in FST” value in assay [4] (5 mg/kg dose, versus saline vehicle) stood at 40%.

For `CNCCCN1c2ccccc2CCc2ccccc21` [desipramine, reference compound], the “antidepressant-like action / immobility in tail suspension test” value in [6] was “significant reduction in immobility”. Further, the “effect on locomotor activity” value in [3] is listed as “no significant difference in locomotor activity”. Moreover, the “reduction in immobility time in FST” value in [4] (20 mg/kg dose, versus vehicle) was found to be 27%.

Regarding `Oc1cc2ccnc3c2c(c1O)NC=C3` [8,9-demethylaaptamine], in [8], the “affinities to serotonin receptors” value is on record as “moderate affinities”. Moreover, the “antidepressant-like activity / effect” value in [4] (versus vehicle) is on record as “Neither”.

(Values after patent publication US8268856B2, “Method to use compositions having antidepressant anxiolytic and other neurological activity and compositions of matter” (priority 2007, dated 2012).)
